From patent US12551532B2, “Long-acting amylin receptor agonists and uses thereof” (Eli Lilly and Company, priority 2021, dated 2026)

How the values were obtained:
[1] = tested on: human dendritic cells; format: cell-based
Experimental: MAPPS profiles the MHC-II presented peptides on human dendritic cells treated with tested molecules. CD14+ cells, isolated from the PBMCs of normal human donors, are cultured and differentiated into immature DCs by incubation with IL-4 and GM-CSF. On day 4, culture media is replaced with fresh media containing tested molecules. On day 5, LPS is added to transform the cells into mature DCs. On day 6, cells are lysed in RIPA buffer with protease inhibitors. Immunoprecipitation of MHC-II complexes are performed using biotinylated anti-MHC-II antibody coupled to streptavidin beads. The bound complex is eluted and filtered. The isolated MHC-II peptides are analyzed by a mass spectrometer. Peptide identifications are generated by an internal proteomics pipeline using search algorithms with no enzyme and a bovine/human database with test sequences appended to the database. A KNIME workflow is used to process the identification files from the samples. Peptides identified from the test articles are aligned against the parent sequence of the test molecule. The output is used to determine the percentage of donors displaying MHC-II peptides from regions of the test molecule. Compound II, Compound IV, Compound VI, Compound VIII, a compound representative of U.S. Pat. No. 9,023,789 (hereinafter “Compound '789”), and Pramlintide are tested in the MAPPs assay.

[2] = tested on: CD4+ T cells
Experimental: This assay assesses the ability of tested antibodies or tested MAPPS peptides to activate CD4+ T cells by inducing cellular proliferation. CD8+ T cell depleted PBMC's are prepared and labeled with CFSE. Each sample is tested with media control, keyhole limpet haemocyanin (KLH; positive clinical benchmark control), tested antibodies, or tested MAPPS peptides. Cultures are incubated for 7 days. On day 7, samples are analyzed by flow cytometry.

CC[C@H](C)[C@H](NC(=O)[C@@H]1CCCN1C(=O)CNC(=O)[C@H](Cc1ccccc1)NC(=O)[C@H](CC(N)=O)NC(=O)[C@H](CC(N)=O)NC(=O)[C@H](CO)NC(=O)[C@H](CO)NC(=O)[C@H](Cc1c[nH]cn1)NC(=O)[C@@H](NC(=O)[C@H](CC(C)C)NC(=O)[C@H](Cc1ccccc1)NC(=O)[C@H](CC(N)=O)NC(=O)[C@H](C)NC(=O)[C@H](CC(C)C)NC(=O)[C@H](CCCNC(=N)N)NC(=O)[C@H](CCC(N)=O)NC(=O)[C@@H](NC(=O)[C@H](C)NC(=O)[C@@H]1CSSC[C@H](NC(=O)[C@@H](N)CCCCN)C(=O)N[C@@H](CC(N)=O)C(=O)N[C@@H]([C@@H](C)O)C(=O)N[C@@H](C)C(=O)N[C@@H]([C@@H](C)O)C(=O)N1)[C@@H](C)O)C(C)C)C(=O)N[C@@H](CC(C)C)C(=O)N1CCC[C@H]1C(=O)N1CCC[C@H]1C(=O)N[C@H](C(=O)N[C@@H](CC(N)=O)C(=O)N[C@H](C(=O)NCC(=O)N[C@@H](CO)C(=O)N[C@@H](CC(N)=O)C(=O)N[C@H](C(=O)N[C@@H](Cc1ccc(O)cc1)C(N)=O)[C@@H](C)O)C(C)C)[C@@H](C)O [Compound XV, reference compound]
MAPPS Assay donors displayed peptides [1]: 10/10 | MAPPS Assay immunogenicity risk [1]: High Risk | peptides displayed on MHC-II complexes [1]: two peptide clusters that in total span residues 1-34 | T Cell Proliferation Assay: protein, immunogenicity risk [2]: High Risk | T Cell Proliferation Assay: protein, positive donors [2]: (7/7 positive
